According to paper PMC7509492, “To What Extent Do Fluorophores Bias the Biological Activity of Peptides? A Practical Approach Using Membrane-Active Peptides as Models” (Frontiers in Bioengineering and Biotechnology, 2020):
Ends that are not written are not given here. Peptide text beside a SMILES is read from it. * marks the point of attachment. RhodamineB = CCN(CC)c1ccc2c(-c3ccccc3C(=O)*)c3ccc(=[N+](CC)CC)cc-3oc2c1; X1 = CC[N+]1=C(C=CC=C2N(CCCCCC(=O)*)c3ccccc3C2(C)C)C(C)(C)c2ccccc21; 5FAM = O=C1OC2(c3ccc(O)cc3Oc3cc(O)ccc32)c2ccc(C(=O)*)cc21

Columns and labels:
[1] = CellTiter-Blue cell viability assay, MDA-MB-231; type: cell-based, human; settings: human, MDA-MB-231 cells, mean ± SD, triplicates of three independent experiments; for IC90 at 24 h: Table 1, concentration causing 90% cell death, peptide 0.01-100 μM, read-out: Cytotoxicity MDA-MB-231 cells IC90; for IC50 at 24 h: Table 1, peptide 0.01-100 μM, read-out: Cytotoxicity MDA-MB-231 cells IC50
Protocol: (§1) Peptides cytotoxicity against both HBEC-5i and MDA-MB-231 cells was determined using CellTiter-Blue® Cell Viability Assay, according to the manufacturer’s instructions. The assay is based on the ability of viable cells to reduce resazurin into resorufin, a highly fluorescent metabolite. […] Therefore, using this methodology is possible to distinguish between metabolic and non-metabolic cells and indirectly determine the cytotoxicity of peptides. Briefly, HBEC-5i and MDA-MB-231 cells were carefully detached from T-flasks, as described previously, and seeded 15,000/100 and 10,000/100 μL, respectively, in 96-well plates (Corning, United States) and incubated for 24 h. After medium removal, cells were washed two times with 1× PBS and 100 μL of previously diluted peptides (range between 0.01 and 100 μM) in either DMEM or DMEM:F12 medium were added to MDA-MB-231 or HBEC-5i cells, respectively. After 24 h incubation, cells were washed two times with 1× PBS, and 20 μL of CellTiter-Blue® Reagent (diluted in 100 μL of medium) was added to each well and incubated for 3 h in a humidified atmosphere of 5% CO2 at 37°C. The fluorescence intensity was measured at λ with an excitation of 560 nm and maximum emission at 590 nm using the infinite F200 TECAN plate reader. Medium and 1% Triton X-100-containing medium were used as positive controls (100% cell viability) and negative controls (0% cell viability), respectively. Cell viability (%) was determined using the following equation:
(§2) (7) CellViability=FP-FNC/FPC-FNC×100
(§3) Fp is the fluorescence intensity of peptide-treated cells, FNC is the fluorescence intensity for negative controls, and FPC is the fluorescence intensity for positive controls.
(§4) Experiments were performed on different days using independently grown cell cultures.
(§5) FIGURE 4 In vitro cytotoxicity unlabeled- and labeled-peptides. (A,B) Cytotoxicity against HBEC-5i cells. (C,D) Cytotoxicity against MDA-MB-231 cells. 1.5 × 10^4 and 1.0 × 10^4 cells of HBEC-5i and MDA-MB-231 cells, respectively, were incubated with various concentrations of peptides (range from 0.01 to 100 μM). The percentage of viability was determined using CellTiter® Blue reagent assay. […] Error bars, S.D.

MDA-MB-231 cells = assay: CellTiter-Blue cell viability assay, MDA-MB-231; type: cell-based, human; settings: peptide 0.01-100 μM, mean ± SD, triplicates of three independent experiments; for Cytotoxicity MDA-MB-231 cells IC10: Table 1, concentration causing 10% cell death; for Cytotoxicity MDA-MB-231 cells IC10 / IC90: 24 h; for IC50: Table 1, 24 h, read-out: Cytotoxicity MDA-MB-231 cells IC50; for IC90: Table 1, concentration causing 90% cell death, read-out: Cytotoxicity MDA-MB-231 cells IC90
Protocol: as §1, §2, §3, §4, §5

human RBCs = assay: Hemolytic activity on human red blood cells; settings: Table 1, human RBCs in 1x PBS pH 7.4, 24 h, 37°C, peptide 0.01-100 μM, mean ± SD, triplicates of three independent experiments; for Hemolytic activity HC10: concentration causing 10% hemolysis, hemoglobin absorbance 570 nm; for Hemolytic activity HC50: concentration causing 50% hemolysis; for Hemolytic activity HC50 / Hemolytic activity HC90: absorbance 570 nm; for Hemolytic activity HC90: concentration causing 90% hemolysis
Protocol: Fresh human blood was collected in EDTA tubes and centrifuged at 1,000 × g for 10 min at 4°C. The supernatant was discharged, and the pellet containing RBCs was washed three times with 1× PBS (137 mM NaCl, 2.7 mM KCl, 10 mM Na2HPO4, and 1.8 mM KH2PO4, pH 7.4) and resuspended in 1× PBS to obtain a 2.0% (v/v) suspension. Then, RBCs were added to centrifuge tubes containing two-fold serially diluted peptides to a final concentration ranging from 0.01 to 100 μM. The suspension was incubated for 24 h at 37°C with gentle stirring. After that, samples were centrifuged for 2 min at 1,000 × g. Supernatants were transferred to 96-well plates, and the hemoglobin released measured by absorbance at 570 nm in an Infinite F200 TECAN plate reader. 1× PBS with no peptides and Triton X-100 at 1 and 4% (v/v) were used as negative and positive controls, respectively. Hemolytic activity (%) was determined using the following equation:
(2) Hemolyticactivity(%)=AbsPT-AbsNC/AbsPC-AbsNC
where, AbsPT is the absorbance of treated samples, AbsNC is the absorbance from negative control, and AbsPC absorbance from positive control.
HC50 values were determined using the GraphPad Prism 7.0 software using a log(inhibitor) vs. normalized response. Experiments were performed on different days using independent blood donors.
(range from 0.01 to 100 μM). The percentage of hemolysis was determined by the absorbance of hemoglobin released into the supernatant. Melittin was included as a control peptide with hemolytic properties. The values were obtained from triplicates of three independent experiments. Error bars, S.D.

## KKRLKKIFKKPMVIGVTIPF-NH2 [Ctn[15-34]]
[1]
  IC90 at 24 h: > 200 µM
  IC50 at 24 h: > 200 µM
MDA-MB-231 cells
  Cytotoxicity MDA-MB-231 cells IC10: 4.76 ± 1.56 µM
Human RBCs
  Hemolytic activity HC10: >200 µM
  Hemolytic activity HC50: >200 µM
  Hemolytic activity HC90: >200 µM

## CC[N+]1=C(C=CC=C2N(CCCCCC(=O)N[C@@H](Cc3c[nH]c4ccccc34)C(=O)N[C@@H](CCCNC(=N)N)C(=O)N[C@@H](CCCNC(=N)N)C(=O)N[C@@H](CCCNC(=N)N)C(=O)N[C@@H](Cc3ccc(O)cc3)C(=O)N[C@@H](CCCNC(=N)N)C(=O)N[C@@H](CCCNC(=N)N)C(=O)N[C@@H](Cc3c[nH]c4ccccc34)C(=O)N[C@@H](CCCNC(=N)N)C(=O)N[C@@H](CCCNC(=N)N)C(=O)N[C@@H](CCCNC(=N)N)C(=O)N[C@@H](CCCNC(=N)N)C(=O)N[C@@H](CCCNC(=N)N)C(=O)N[C@@H](Cc3c[nH]c4ccccc34)C(=O)N[C@@H](CCCNC(=N)N)C(=O)N[C@@H](CCCNC(=N)N)C(=O)N[C@@H](CCCNC(=N)N)C(=O)N3CCC[C@H]3C(=O)N[C@@H](CCCNC(=N)N)C(=O)N[C@@H](CCCNC(=N)N)C(N)=O)c3ccccc3C2(C)C)C(C)(C)c2ccccc21 [Q570-vCPP2319] (X1-WRRRYRRWRRRRRWRRRPRR-NH2)
[1]
  IC90 at 24 h: 16 ± 1.94 µM
  IC50 at 24 h: 4.26 ± 1.03 µM
MDA-MB-231 cells
  Cytotoxicity MDA-MB-231 cells IC10: 1.14 ± 0.34 µM

## CC[C@H](C)[C@H](NC(=O)[C@H](CCCCN)NC(=O)[C@H](CCCCN)NC(=O)[C@H](CC(C)C)NC(=O)[C@H](CCCNC(=N)N)NC(=O)[C@H](CCCCN)NC(=O)[C@H](CCCCN)NC(=O)CCCCCN1C(=CC=CC2=[N+](CC)c3ccccc3C2(C)C)C(C)(C)c2ccccc21)C(=O)N[C@@H](Cc1ccccc1)C(=O)N[C@@H](CCCCN)C(=O)N[C@@H](CCCCN)C(=O)N1CCC[C@H]1C(=O)N[C@@H](CCSC)C(=O)N[C@H](C(=O)N[C@H](C(=O)NCC(=O)N[C@H](C(=O)N[C@H](C(=O)N[C@H](C(=O)N1CCC[C@H]1C(=O)N[C@@H](Cc1ccccc1)C(N)=O)[C@@H](C)CC)[C@@H](C)O)C(C)C)[C@@H](C)CC)C(C)C [Q570-Ctn[15-34]] (X1-KKRLKKIFKKPMVIGVTIPF-NH2)
[1]
  IC90 at 24 h: > 200 µM
  IC50 at 24 h: 144 ± 4.21 µM
MDA-MB-231 cells
  Cytotoxicity MDA-MB-231 cells IC10: 3.08 ± 1.22 µM

## CC[C@H](C)[C@H](NC(=O)[C@H](CCCCN)NC(=O)[C@H](CCCCN)NC(=O)[C@H](CC(C)C)NC(=O)[C@H](CCCNC(=N)N)NC(=O)[C@H](CCCCN)NC(=O)[C@H](CCCCN)NC(=O)c1ccc2c(c1)C(=O)OC21c2ccc(O)cc2Oc2cc(O)ccc21)C(=O)N[C@@H](Cc1ccccc1)C(=O)N[C@@H](CCCCN)C(=O)N[C@@H](CCCCN)C(=O)N1CCC[C@H]1C(=O)N[C@@H](CCSC)C(=O)N[C@H](C(=O)N[C@H](C(=O)NCC(=O)N[C@H](C(=O)N[C@H](C(=O)N[C@H](C(=O)N1CCC[C@H]1C(=O)N[C@@H](Cc1ccccc1)C(N)=O)[C@@H](C)CC)[C@@H](C)O)C(C)C)[C@@H](C)CC)C(C)C [CF-Ctn[15-34]] (5FAM-KKRLKKIFKKPMVIGVTIPF-NH2)
[1]
  IC90 at 24 h: > 200 µM
  IC50 at 24 h: > 200 µM
MDA-MB-231 cells
  Cytotoxicity MDA-MB-231 cells IC10: 4.23 ± 1.02 µM
Human RBCs
  Hemolytic activity HC10: >200 µM
  Hemolytic activity HC50: >200 µM
  Hemolytic activity HC90: >200 µM

## TF3-WRRRYRRWRRRRRWRRRPRR-amide [TF3-vCPP2319]
MDA-MB-231 cells
  IC50: 4.3 ± 0.03 µM
  Cytotoxicity MDA-MB-231 cells IC10: 1.05 ± 0.21 µM
  IC90: 17 ± 1.58 µM
Human RBCs
  Hemolytic activity HC10: 2.83 ± 0.97 µM
  Hemolytic activity HC50: >200 µM
  Hemolytic activity HC90: >200 µM

## WRRRYRRWRRRRRWRRRPRR-NH2 [vCPP2319]
[1]
  IC90 at 24 h: 20.6 ± 2.1 µM
  IC50 at 24 h: 5.02 ± 1.04 µM
MDA-MB-231 cells
  Cytotoxicity MDA-MB-231 cells IC10: 1.22 ± 0.52 µM
Human RBCs
  Hemolytic activity HC10: >200 µM
  Hemolytic activity HC50: >200 µM
  Hemolytic activity HC90: >200 µM

## CCN(CC)c1ccc2c(-c3ccccc3C(=O)N[C@@H](Cc3c[nH]c4ccccc34)C(=O)N[C@@H](CCCNC(=N)N)C(=O)N[C@@H](CCCNC(=N)N)C(=O)N[C@@H](CCCNC(=N)N)C(=O)N[C@@H](Cc3ccc(O)cc3)C(=O)N[C@@H](CCCNC(=N)N)C(=O)N[C@@H](CCCNC(=N)N)C(=O)N[C@@H](Cc3c[nH]c4ccccc34)C(=O)N[C@@H](CCCNC(=N)N)C(=O)N[C@@H](CCCNC(=N)N)C(=O)N[C@@H](CCCNC(=N)N)C(=O)N[C@@H](CCCNC(=N)N)C(=O)N[C@@H](CCCNC(=N)N)C(=O)N[C@@H](Cc3c[nH]c4ccccc34)C(=O)N[C@@H](CCCNC(=N)N)C(=O)N[C@@H](CCCNC(=N)N)C(=O)N[C@@H](CCCNC(=N)N)C(=O)N3CCC[C@H]3C(=O)N[C@@H](CCCNC(=N)N)C(=O)N[C@@H](CCCNC(=N)N)C(N)=O)c3ccc(=[N+](CC)CC)cc-3oc2c1 [RhB-vCPP2319] (RhodamineB-WRRRYRRWRRRRRWRRRPRR-NH2)
[1]
  IC90 at 24 h: 16.6 ± 1.31 µM
  IC50 at 24 h: 4.11 ± 1.04 µM
MDA-MB-231 cells
  Cytotoxicity MDA-MB-231 cells IC10: 1.13 ± 0.64 µM
Human RBCs
  Hemolytic activity HC10: 2.43 ± 0.32 µM
  Hemolytic activity HC50: 23.88 ± 2.24 µM
  Hemolytic activity HC90: >200 µM

## TF3-KKRLKKIFKKPMVIGVTIPF-amide [TF3-Ctn[15-34]]
MDA-MB-231 cells
  IC50: 123 ± 3.84 µM
  Cytotoxicity MDA-MB-231 cells IC10: 2.57 ± 1.37 µM
  IC90: > 200 µM
Human RBCs
  Hemolytic activity HC10: 102.0 ± 6.20 µM
  Hemolytic activity HC50: >200 µM
  Hemolytic activity HC90: >200 µM

## CC[C@H](C)[C@H](NC(=O)[C@H](CCCCN)NC(=O)[C@H](CCCCN)NC(=O)[C@H](CC(C)C)NC(=O)[C@H](CCCNC(=N)N)NC(=O)[C@H](CCCCN)NC(=O)[C@H](CCCCN)NC(=O)c1ccccc1-c1c2ccc(=[N+](CC)CC)cc-2oc2cc(N(CC)CC)ccc12)C(=O)N[C@@H](Cc1ccccc1)C(=O)N[C@@H](CCCCN)C(=O)N[C@@H](CCCCN)C(=O)N1CCC[C@H]1C(=O)N[C@@H](CCSC)C(=O)N[C@H](C(=O)N[C@H](C(=O)NCC(=O)N[C@H](C(=O)N[C@H](C(=O)N[C@H](C(=O)N1CCC[C@H]1C(=O)N[C@@H](Cc1ccccc1)C(N)=O)[C@@H](C)CC)[C@@H](C)O)C(C)C)[C@@H](C)CC)C(C)C [RhB-Ctn[15-34]] (RhodamineB-KKRLKKIFKKPMVIGVTIPF-NH2)
[1]
  IC90 at 24 h: > 200 µM
  IC50 at 24 h: > 200 µM
MDA-MB-231 cells
  Cytotoxicity MDA-MB-231 cells IC10: 2.97 ± 0.98 µM
Human RBCs
  Hemolytic activity HC10: 3.29 ± 1.32 µM
  Hemolytic activity HC50: 61.43 ± 4.33 µM
  Hemolytic activity HC90: >200 µM

## N=C(N)NCCC[C@H](NC(=O)[C@H](CCCNC(=N)N)NC(=O)[C@@H]1CCCN1C(=O)[C@H](CCCNC(=N)N)NC(=O)[C@H](CCCNC(=N)N)NC(=O)[C@H](CCCNC(=N)N)NC(=O)[C@H](Cc1c[nH]c2ccccc12)NC(=O)[C@H](CCCNC(=N)N)NC(=O)[C@H](CCCNC(=N)N)NC(=O)[C@H](CCCNC(=N)N)NC(=O)[C@H](CCCNC(=N)N)NC(=O)[C@H](CCCNC(=N)N)NC(=O)[C@H](Cc1c[nH]c2ccccc12)NC(=O)[C@H](CCCNC(=N)N)NC(=O)[C@H](CCCNC(=N)N)NC(=O)[C@H](Cc1ccc(O)cc1)NC(=O)[C@H](CCCNC(=N)N)NC(=O)[C@H](CCCNC(=N)N)NC(=O)[C@H](CCCNC(=N)N)NC(=O)[C@H](Cc1c[nH]c2ccccc12)NC(=O)c1ccc2c(c1)C(=O)OC21c2ccc(O)cc2Oc2cc(O)ccc21)C(N)=O [CF-vCPP2319] (5FAM-WRRRYRRWRRRRRWRRRPRR-NH2)
[1]
  IC90 at 24 h: 18.8 ± 1.87 µM
  IC50 at 24 h: 4.72 ± 0.94 µM
MDA-MB-231 cells
  Cytotoxicity MDA-MB-231 cells IC10: 1.26 ± 0.24 µM
Human RBCs
  Hemolytic activity HC10: >200 µM
  Hemolytic activity HC50: >200 µM
  Hemolytic activity HC90: >200 µM
